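Tested at 5 concentrations; 48 h exposure; 96-well plates; endpoints linearly interpolated, else capped at highest concentration. Here, GI50 denotes the concentration required for 50% inhibition of growth.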 Active and inactive are the calls of the source. Cut-off read from the data, not from the text of the source: active = GI50 up to about 1.1 µM and inactive = higher.
How the values were obtained:
Assay in all cases: NCI-60 cell line screen, 48 h
RXF 393 = system: RXF 393
TK-10 = system: TK-10
NCI-H226 = system: NCI-H226
Hs-578T = system: Hs-578T
OVCAR-5 = system: OVCAR-5
HT-29 = system: HT-29
PC-3 = system: PC-3
ACHN = system: ACHN
KM12 = system: KM12
HL-60 = system: HL-60
SW-620 = system: SW-620
SNB-19 = system: SNB-19
MDA-MB-231 = system: MDA-MB-231
EKVX = system: EKVX
K562 = system: K562
MCF7 = system: MCF7
UO-31 = system: UO-31
OVCAR-3 = system: OVCAR-3
DU-145 = system: DU-145
SR = system: SR

SMILES	GI50 (RXF 393)	GI50 (TK-10)	GI50 (NCI-H226)	GI50 (Hs-578T)	GI50 (OVCAR-5)	GI50 (HT-29)	GI50 (PC-3)	GI50 (ACHN)	GI50 (KM12)	GI50 (HL-60)	GI50 (SW-620)	GI50 (SNB-19)	GI50 (MDA-MB-231)	GI50 (EKVX)	GI50 (K562)	GI50 (MCF7)	GI50 (UO-31)	GI50 (OVCAR-3)	GI50 (DU-145)	GI50 (SR)
CNS(=O)(=O)c1ccccc1C(=N)c1ccccc1	> 100 µM (inactive)	> 100 µM (inactive)	> 100 µM (inactive)	> 100 µM (inactive)	> 100 µM (inactive)	> 100 µM (inactive)	> 100 µM (inactive)	> 100 µM (inactive)	> 100 µM (inactive)	> 100 µM (inactive)	> 100 µM (inactive)	> 100 µM (inactive)	> 100 µM (inactive)	> 100 µM (inactive)	> 100 µM (inactive)	> 100 µM (inactive)	> 100 µM (inactive)	> 100 µM (inactive)	> 100 µM (inactive)	> 100 µM (inactive)
O=[N+]([O-])c1cccc2nc3ccccc3c(NCCCN3CCOCC3)c12	< 0.013 µM (active)	0.029 µM (active)	0.0213 µM (active)	0.0405 µM (active)	0.0287 µM (active)	< 0.01 µM (active)	0.0219 µM (active)	< 0.01 µM (active)	0.0154 µM (active)	0.0302 µM (active)	< 0.01 µM (active)	0.0304 µM (active)	0.0189 µM (active)	< 0.0127 µM (active)	0.015 µM (active)	< 0.0116 µM (active)	0.0144 µM (active)	0.0184 µM (active)	< 0.01 µM (active)	< 0.01 µM (active)
CCCCCCCC(=O)N/N=C/c1ccc(Sc2nccn2C)c([N+](=O)[O-])c1	14.7 µM (inactive)	26.6 µM (inactive)	14.5 µM (inactive)	18.5 µM (inactive)	18.2 µM (inactive)	9.79 µM (inactive)	15.6 µM (inactive)	21.9 µM (inactive)	14.1 µM (inactive)	0.27 µM (active)	14.9 µM (inactive)	21.4 µM (inactive)	15 µM (inactive)	14.7 µM (inactive)	14.2 µM (inactive)	16.6 µM (inactive)	10.3 µM (inactive)	15.6 µM (inactive)	18.4 µM (inactive)	18.8 µM (inactive)
COC(=O)N1C2C(C[C@@]1(C)C(=O)OC)c1ccccc1N2S(=O)(=O)c1ccccc1 (stereo not given in full)	> 100 µM (inactive)	> 100 µM (inactive)	> 100 µM (inactive)	> 100 µM (inactive)	> 100 µM (inactive)	> 100 µM (inactive)	> 100 µM (inactive)	> 100 µM (inactive)	> 100 µM (inactive)	> 100 µM (inactive)	> 100 µM (inactive)	> 100 µM (inactive)	> 100 µM (inactive)	> 100 µM (inactive)	> 100 µM (inactive)	> 100 µM (inactive)	> 100 µM (inactive)	> 100 µM (inactive)	> 100 µM (inactive)	> 100 µM (inactive)
C1CSCCCSCCCSCCCSCCCSC1	42.9 µM (inactive)	37.2 µM (inactive)	25.5 µM (inactive)	44.8 µM (inactive)	57.8 µM (inactive)	22.9 µM (inactive)	19 µM (inactive)	29.2 µM (inactive)	25.4 µM (inactive)	14.2 µM (inactive)	56.5 µM (inactive)	37.9 µM (inactive)	29.2 µM (inactive)	24.5 µM (inactive)	21.4 µM (inactive)	24.5 µM (inactive)	26.8 µM (inactive)	28.6 µM (inactive)	46.5 µM (inactive)	11.4 µM (inactive)
CCOC(=O)c1ccc(Nc2c3c(nc4ccccc24)CCCC3)cc1	33.9 µM (inactive)	> 74.1 µM (inactive)	> 100 µM (inactive)	27.5 µM (inactive)	> 60 µM (inactive)	2.89 µM (inactive)	> 47.5 µM (inactive)	> 91.4 µM (inactive)	3.54 µM (inactive)	3.22 µM (inactive)	4.2 µM (inactive)	41 µM (inactive)	26.6 µM (inactive)	> 54.2 µM (inactive)	3.74 µM (inactive)	12 µM (inactive)	> 34.3 µM (inactive)	> 100 µM (inactive)	> 57.9 µM (inactive)	25.4 µM (inactive)
O=C(CNc1ccccc1[N+](=O)[O-])Nn1c(-c2ccccc2)nc2ccccc2c1=O	20.1 µM (inactive)	> 10 µM (inactive)	29.2 µM (inactive)	27.4 µM (inactive)	22.3 µM (inactive)	17.5 µM (inactive)	22.2 µM (inactive)	22.2 µM (inactive)	> 10 µM (inactive)	31.7 µM (inactive)	19.1 µM (inactive)	22.8 µM (inactive)	15.7 µM (inactive)	19.6 µM (inactive)	16.3 µM (inactive)	19.1 µM (inactive)	18.7 µM (inactive)	29.4 µM (inactive)	28.7 µM (inactive)	18.2 µM (inactive)
CCCCCCCCCCCCCCCC(=O)Nc1ccn(C2CC(OP(=O)(O)OCC3OC(n4cc(F)c(=O)[nH]c4=O)CC3OC(C)=O)C(CO)O2)c(=O)n1 (stereo not given)	> 41 µM (inactive)	> 64 µM (inactive)	31.2 µM (inactive)	12.1 µM (inactive)	> 41.8 µM (inactive)	7.62 µM (inactive)	7.87 µM (inactive)	0.128 µM (active)	15 µM (inactive)	3.94 µM (inactive)	22.9 µM (inactive)	2.73 µM (inactive)	> 43.4 µM (inactive)	> 61.2 µM (inactive)	13.3 µM (inactive)	> 100 µM (inactive)	0.565 µM (active)	> 53.2 µM (inactive)	3.61 µM (inactive)	1 µM (active)
N/C(=N\N=C\c1c[nH]c2ccccc12)Nc1ccccc1	0.156 µM (active)	1.28 µM (inactive)	1.74 µM (inactive)	0.14 µM (active)	3.13 µM (inactive)	0.191 µM (active)	0.201 µM (active)	0.671 µM (active)	0.153 µM (active)	0.144 µM (active)	0.122 µM (active)	0.54 µM (active)	0.624 µM (active)	2.92 µM (inactive)	0.278 µM (active)	0.185 µM (active)	0.721 µM (active)	0.134 µM (active)	0.314 µM (active)	0.955 µM (active)
CC(C)(C)OC(=O)N(CCCCNC(=O)C(F)(F)F)CCCNC(=O)C(F)(F)F	> 100 µM (inactive)	> 100 µM (inactive)	> 100 µM (inactive)	> 100 µM (inactive)	> 100 µM (inactive)	> 100 µM (inactive)	> 100 µM (inactive)	> 100 µM (inactive)	> 100 µM (inactive)	87.5 µM (inactive)	> 100 µM (inactive)	> 100 µM (inactive)	> 100 µM (inactive)	> 100 µM (inactive)	> 100 µM (inactive)	> 100 µM (inactive)	> 100 µM (inactive)	> 100 µM (inactive)	> 100 µM (inactive)	> 100 µM (inactive)
COC1CCN(N(C)C)O1 (stereo not given)	> 100 µM (inactive)	> 100 µM (inactive)	> 100 µM (inactive)	> 100 µM (inactive)	> 100 µM (inactive)	> 100 µM (inactive)	> 100 µM (inactive)	> 100 µM (inactive)	> 100 µM (inactive)	> 100 µM (inactive)	> 100 µM (inactive)	> 100 µM (inactive)	> 100 µM (inactive)	> 100 µM (inactive)	> 100 µM (inactive)	> 100 µM (inactive)	> 100 µM (inactive)	> 100 µM (inactive)	> 100 µM (inactive)	> 100 µM (inactive)
NCCNCCCNC(=O)c1cc(-c2ccccc2)nc2ccccc12	38.8 µM (inactive)	62.7 µM (inactive)	> 100 µM (inactive)	48.3 µM (inactive)	46.3 µM (inactive)	36.2 µM (inactive)	51.3 µM (inactive)	38.1 µM (inactive)	33.1 µM (inactive)	30.6 µM (inactive)	34 µM (inactive)	50 µM (inactive)	31.3 µM (inactive)	> 100 µM (inactive)	23.1 µM (inactive)	45.4 µM (inactive)	46 µM (inactive)	> 100 µM (inactive)	> 100 µM (inactive)	28.3 µM (inactive)
COc1ccc(/C=C2\CCC(C)(CN(C)C)C2=O)cc1Br (stereo not given)	17.9 µM (inactive)	22 µM (inactive)	18.9 µM (inactive)	30.5 µM (inactive)	37.7 µM (inactive)	21.9 µM (inactive)	20.4 µM (inactive)	24.6 µM (inactive)	14 µM (inactive)	34.8 µM (inactive)	19.8 µM (inactive)	23 µM (inactive)	36.1 µM (inactive)	10.2 µM (inactive)	27.9 µM (inactive)	13.5 µM (inactive)	18.1 µM (inactive)	18.2 µM (inactive)	50.4 µM (inactive)	19.1 µM (inactive)
NS(=O)(=O)c1ccc(/N=N/c2ccc(O)c(O)c2)cc1	17.7 µM (inactive)	24.6 µM (inactive)	14.5 µM (inactive)	20 µM (inactive)	48.6 µM (inactive)	27.2 µM (inactive)	20.6 µM (inactive)	3.22 µM (inactive)	11.7 µM (inactive)	16.9 µM (inactive)	7.89 µM (inactive)	21.8 µM (inactive)	10.7 µM (inactive)	46.2 µM (inactive)	28.7 µM (inactive)	27.5 µM (inactive)	11.2 µM (inactive)	24.3 µM (inactive)	31 µM (inactive)	3.05 µM (inactive)

— ChEMBL document CHEMBL1201862, “PubChem BioAssay data set” (2004)
